# Source: ChEMBL document CHEMBL1158594, “Turning off transcription of the bcl-2 gene by stabilizing the bcl-2 promoter quadruplex with quindoline derivatives” (J Med Chem, 2010)
# Calls of active or inactive are those of the source. The calls are words filed in the database; no cut-off is given here.
# Assays:
# [1] = tested on: Nucleic Acid; assay: Selectivity ratio of Kd for Bcl-2 promoter duplex DNA to Kd for Bcl-2 promoter quadruplex DNA; format: nucleic-acid assay
# [2] = tested on: Nucleic Acid; assay: Binding affinity to human single-strand oligonucleotide MutPu39 transfected in human HL60 cells assessed as Bcl-2 transcriptional activation at 0.4 uM after 48 hrs by luciferase reporter gene assay relative to untreated MutPu39-construct control; format: cell-based; details: HL-60
# [3] = target: Nucleic Acid; assay: Binding affinity to Bcl-2 promoter quadruplex DNA by surface plasmon resonance assay; format: nucleic-acid assay
# [4] = target: Nucleic Acid; assay: Binding affinity to single-strand oligonucleotide MutPu39 assessed as formation of G-quadruplex complex after 3 mins by PCR stop assay; format: nucleic-acid assay
# [5] = tested on: Nucleic Acid; assay: Stabilization of single-strand oligonucleotide MidG4 assessed as melting temperature by FRET assay; format: nucleic-acid assay
# [6] = target: Nucleic Acid; assay: Binding affinity to single-strand oligonucleotide Pu39 assessed as formation of G-quadruplex complex after 3 mins by PCR stop assay; format: nucleic-acid assay
# [7] = target: Nucleic Acid; assay: Binding affinity to Bcl-2 promoter duplex DNA by surface plasmon resonance assay; format: nucleic-acid assay
# [8] = tested on: Nucleic Acid; assay: Binding affinity to human single-strand oligonucleotide Pu39 transfected in human HL60 cells assessed as Bcl-2 transcriptional activation at 0.4 uM after 48 hrs by luciferase reporter gene assay relative to untreated Pu39-construct control; format: cell-based; details: HL-60
# [9] = tested on: Nucleic Acid; assay: Binding affinity to human single-strand oligonucleotide MutPu39 transfected in human HL60 cells assessed as Bcl-2 transcriptional activation at 0.4 uM after 48 hrs by luciferase reporter gene assay relative to untreated Pu39-construct control; format: cell-based; details: HL-60
# [10] = tested on: HL-60; assay: Downregulation of Bcl-2 mRNA expression in human HL60 cells by RT-PCR analysis; format: functional, cell-based
# [11] = tested on: Nucleic Acid; assay: Binding affinity to human single-strand oligonucleotide Pu39 transfected in human HL60 cells assessed as reduction of Bcl-2 transcriptional activation at 0.4 uM after 48 hrs by luciferase reporter gene assay; format: cell-based; details: HL-60
# [12] = tested on: HL-60; assay: Induction of apoptosis in human HL60 cells assessed as cleavage of 35 kDa procaspase-3 at 0.02 to 0.2 uM after 4 days by Western blot analysis; format: functional, cell-based
# [13] = tested on: HL-60; assay: Cell cycle arrest in human HL60 cells assessed as accumulation at sub-G1 phase at 0.2 uM after 4 days by propidium iodide staining-based flow cytometry; format: functional
# [14] = tested on: HL-60; assay: Antiproliferative activity against human HL60 cells at 0.02 to 0.2 uM after 4 days by trypan blue exclusion assay; format: functional, cell-based
# [15] = tested on: HL-60; assay: Antiproliferative activity against human HL60 cells assessed as viable cells at 0.2 uM after 4 days by trypan blue exclusion assay; format: functional; details: HL-60, 96 h, read-out: Activity
# [16] = tested on: HL-60; assay: Downregulation of Bcl-2 mRNA expression in human HL60 cells at 0.2 uM by RT-PCR analysis; format: functional
# [17] = tested on: HL-60; assay: Induction of apoptosis in human HL60 cells assessed as cleavage of 17 kDa procaspase-3 at 0.02 to 0.2 uM after 4 days by Western blot analysis; format: functional, cell-based
# [18] = tested on: HL-60; assay: Cell cycle arrest in human HL60 cells assessed as accumulation at sub-G1 phase at 0.1 uM after 4 days by propidium iodide staining-based flow cytometry; format: functional
# [19] = tested on: HL-60; assay: Cell cycle arrest in human HL60 cells assessed as accumulation at sub-G1 phase at 0.05 uM after 4 days by propidium iodide staining-based flow cytometry; format: functional
# [20] = tested on: HL-60; assay: Induction of apoptosis in human HL60 cells assessed as PARP cleavage at 0.2 uM after 4 days by Western blot analysis; format: functional, cell-based
# [21] = tested on: Nucleic Acid; assay: Binding affinity to human single-strand oligonucleotide MutPu39 transfected in human HL60 cells assessed as reduction of Bcl-2 transcriptional activation at 0.4 uM after 48 hrs by luciferase reporter gene assay; format: cell-based; details: HL-60
# [22] = tested on: HL-60; assay: Downregulation of Bcl-2 protein expression in human HL60 cells at 0.02 to 0.2 uM after 4 days by Western blot analysis; format: functional, cell-based
# [23] = tested on: HL-60; assay: Induction of apoptosis in human HL60 cells assessed as PARP cleavage at 1 uM after 4 days by Western blot analysis; format: functional, cell-based
# [24] = tested on: HL-60; assay: Cell cycle arrest in human HL60 cells assessed as accumulation at sub-G1 phase at 0.5 uM after 4 days by propidium iodide staining-based flow cytometry; format: functional
# [25] = tested on: HL-60; assay: Induction of apoptosis in human HL60 cells assessed as cleavage of 35 kDa procaspase-3 at 0.1 to 1 uM after 4 days by Western blot analysis; format: functional, cell-based
# [26] = tested on: HL-60; assay: Induction of apoptosis in human HL60 cells assessed as cleavage of 17 kDa procaspase-3 at 0.1 to 1 uM after 4 days by Western blot analysis; format: functional, cell-based
# [27] = tested on: HL-60; assay: Downregulation of Bcl-2 protein expression in human HL60 cells at 0.1 to 1 uM after 4 days by Western blot analysis; format: functional, cell-based
# [28] = tested on: HL-60; assay: Downregulation of Bcl-2 mRNA expression in human HL60 cells at 0.8 uM by RT-PCR analysis; format: functional
# [29] = tested on: HL-60; assay: Antiproliferative activity against human HL60 cells assessed as viable cells at 1 uM after 4 days by trypan blue exclusion assay; format: functional; details: HL-60, 96 h, read-out: Activity
# [30] = tested on: HL-60; assay: Cell cycle arrest in human HL60 cells assessed as accumulation at sub-G1 phase at 1 uM after 4 days by propidium iodide staining-based flow cytometry; format: functional
# [31] = tested on: HL-60; assay: Antiproliferative activity against human HL60 cells at 0.1 to 1 uM after 4 days by trypan blue exclusion assay; format: functional, cell-based
Selectivity ratio [1],Kd [3] [nM],IC50 [4] [nM],Tm [5] [°C],IC50 [6] [nM],Kd [7] [nM],Structure (SMILES),Activity [2] [%],Activity [8] [%],Activity [9] [%],Activity [10],inhibition [11] [%],Activity [13] [%],inhibition [21] [%],other results
2.3,1500,> 100000,51.5,> 100000,3380,OCCNc1c2ccccc2nc2c1[nH]c1ccccc12,92.6,84.4,163,–,–,–,–,–
–,31.8,19700,76.9,1110,269,CN(C)CCCNc1c2ccccc2[n+](C)c2c1[nH]c1ccc(F)cc12.[I-],74.6,51.4,132,Dose-dependent effect,50,3.5,25,Activity [12]: Active; Activity [14]: Active; viability at 0.2 µM [15]: < 25%; Activity [16]: 50%; Activity [17]: inactive; Activity [18]: 23.8%; Activity [19]: 5%; Activity [20]: Active; Activity [22]: Active
2.9,167,> 100000,65.1,74400,482,CN(C)CCCNc1c2ccccc2nc2c1[nH]c1ccc(F)cc12,88.3,70.5,156,Dose-dependent effect,30,3,12,Activity [23]: Active; Activity [24]: 6.1%; Activity [25]: Active; Activity [26]: inactive; Activity [27]: Active; Activity [28]: 50%; viability at 1 µM [29]: < 25%; Activity [30]: 22.3%; Activity [31]: Active
